The source of these data is PubChem BioAssay (NCI).

“And” between values parts separate entries of the source, which are not always exact repeats. Equal entries are not always repeated.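 Exposure lasted 48 hours, with cells grown in 96-well plates and compounds tested at five concentrations. GI50 = concentration required for 50% inhibition of growth. The concentration for full growth arrest is given as TGI.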

The subject of the first test is UACC-257 melanoma. The test is described as follows: NCI anticancer screen, dose series, 48 h.
Take `Nc1cc(N)c2nc(-c3ccccc3)c(Oc3ccc(F)cc3)nc2c1`: the GI50 was 23.2 µM and the TGI stood at 42.6 µM.

Turning to `CN1CCCN(CCNc2nccc(-c3c(-c4cccc(O)c4)nc4sccn34)n2)S1(=O)=O`, the GI50 was 0.132 µM and 1.01 µM.

On to `CCOC(=O)c1c(NC(=O)c2ccc(C(C)C)cc2)sc2c(CN(C)C)c(O)ccc12`, for which the GI50 is 2.12 µM and the TGI turned out to be 4.61 µM.

Take `COc1ccc(C(=O)N2c3ccccc3Sc3ccccc32)c(F)c1`: the GI50 was above 100 µM and the TGI was above 100 µM.

The molecule `CC(O)CNC1=CC(=O)C(=O)c2ccccc21` (configuration not stated) yielded a TGI of 30.3 µM.

Consider `CC1(C)N=C(N)N=C(N)N1c1ccc(CCc2ccccc2)c(Cl)c1`, for which the GI50 is 0.392 µM and the TGI turned out to be 13.1 µM.

In the case of `Cc1ccc(C(=O)Nc2ccc(CN3CCN(C)CC3)c(C(F)(F)F)c2)cc1C#Cc1cnc(N)c2ccc(F)cc12`, the GI50 was 0.594 µM and the TGI was found to be 1.95 µM.

In the case of `CC1(C)CCC(C)(C)c2cc(C(=O)Nc3ccc(C(=O)O)cc3)ccc21`, the TGI was above 67.7 µM.

Regarding `CC1=C(C(=O)NC2CCCCC2)CC(C(=O)NC2CCCCC2)=C(C)N1`, the TGI is above 100 µM.

Another test has as its system SK-MEL-28 melanoma. The experiment in a line: NCI anticancer screen, dose series, 48 h.
As for `COc1ccc(Cl)cc1Nc1nc(C(F)(F)F)ccc1C(=O)NN`, the GI50 is 3.38 µM and the TGI is above 100 µM.

For the molecule `CC(C)c1ccc2nc3ccc(C(=O)NCCN(C)C)cn3c(=O)c2c1`, the TGI amounted to 32.4 µM.

Take `CNC(=O)Nc1ccc(-c2nc(N3CCOCC3)nc3c2cnn3C2CCOCC2)cc1`: the GI50 was 0.164 µM and the TGI was 2.22 µM.

In turn, `NCCCCNCCCNC(=O)CNC(=O)CC(O)C(N)CCCC(NC(=O)C(CN)NC(=O)C(O)CNC(=O)CC(N)c1ccc(O)cc1)C(=O)O` (configuration not stated) came in with a TGI above 10 µM.

As to `N/C(=N\OC(=O)c1ccccc1)C(C(=O)NOC(=O)c1ccccc1)C1CCCCC1` (configuration not stated), the GI50 was 16.2 µM and the TGI was determined as 50.7 µM.

As for `CCOc1ccc(N=Nc2ccc3cc(/C(C)=N/NC(=O)/C(C#N)=C\c4ccc(N(CCC#N)CCC#N)cc4)c(=O)oc3c2)cc1`, the TGI was above 10 µM.

Take `O=C(O)c1cc[c]([Hg][S]c2ncnc3nc[nH]c23)cc1`: the GI50 was 17.4 µM and the TGI is 32 µM.

Take `O=C(Nc1ccc(OC(F)(F)F)cc1)c1sccc1NCc1ccnc2ccccc12`: the GI50 is 5.64 µM and the TGI was above 100 µM.

In turn, `CCN(CC)c1ccc(NC(=S)NN(C)C)cc1` displayed a TGI above 10 µM.

As for `Nc1cc(N)c2nc(-c3ccccc3)c(Oc3ccc(F)cc3)nc2c1`, the GI50 was 19.4 µM and the TGI came to 46.5 µM.

`CN1CCCN(CCNc2nccc(-c3c(-c4cccc(O)c4)nc4sccn34)n2)S1(=O)=O`: the GI50 is 0.168 µM and 0.226 µM; the TGI is 60.8 µM and 40.3 µM.

On to `CCOC(=O)c1c(NC(=O)c2ccc(C(C)C)cc2)sc2c(CN(C)C)c(O)ccc12`, for which the GI50 is 1.73 µM and the TGI was found to be 3.24 µM.

As to `COc1ccc(C(=O)N2c3ccccc3Sc3ccccc32)c(F)c1`, the GI50 was 1.64 µM and the TGI is above 100 µM.

Take `CC(O)CNC1=CC(=O)C(=O)c2ccccc21` (configuration not stated): the TGI was found to be 35 µM.

As for `CC1(C)N=C(N)N=C(N)N1c1ccc(CCc2ccccc2)c(Cl)c1`, the GI50 is 0.391 µM and the TGI worked out at 15.9 µM.

As to `Cc1ccc(C(=O)Nc2ccc(CN3CCN(C)CC3)c(C(F)(F)F)c2)cc1C#Cc1cnc(N)c2ccc(F)cc12`, the GI50 was 0.41 µM and the TGI was determined as 0.918 µM.

On to `CC1(C)CCC(C)(C)c2cc(C(=O)Nc3ccc(C(=O)O)cc3)ccc21`, for which the TGI was above 90.8 µM.

With `CC1=C(C(=O)NC2CCCCC2)CC(C(=O)NC2CCCCC2)=C(C)N1`, the TGI was above 100 µM.

In another test the test system is K-562 leukemia. The experiment in a line: NCI anticancer screen, dose series, 48 h.
Consider `COc1ccc(Cl)cc1Nc1nc(C(F)(F)F)ccc1C(=O)NN`, for which the GI50 was 3.35 µM and the TGI was above 100 µM.

In the case of `CC(C)c1ccc2nc3ccc(C(=O)NCCN(C)C)cn3c(=O)c2c1`, the TGI came out at 9.46 µM.

`CNC(=O)Nc1ccc(-c2nc(N3CCOCC3)nc3c2cnn3C2CCOCC2)cc1`: the GI50 is 0.533 µM and the TGI is above 100 µM.

In turn, `NCCCCNCCCNC(=O)CNC(=O)CC(O)C(N)CCCC(NC(=O)C(CN)NC(=O)C(O)CNC(=O)CC(N)c1ccc(O)cc1)C(=O)O` (configuration not stated) yielded a TGI above 10 µM.

With `N/C(=N\OC(=O)c1ccccc1)C(C(=O)NOC(=O)c1ccccc1)C1CCCCC1` (configuration not stated), the GI50 was 3.08 µM and the TGI is 10.6 µM.

Molecule `CCOc1ccc(N=Nc2ccc3cc(/C(C)=N/NC(=O)/C(C#N)=C\c4ccc(N(CCC#N)CCC#N)cc4)c(=O)oc3c2)cc1` returned a TGI above 10 µM.

`O=C(O)c1cc[c]([Hg][S]c2ncnc3nc[nH]c23)cc1`: the GI50 was 1.7 µM and the TGI was 15.7 µM.

Regarding `O=C(Nc1ccc(OC(F)(F)F)cc1)c1sccc1NCc1ccnc2ccccc12`, the GI50 is 1.61 µM and the TGI was above 100 µM.

Take `CCN(CC)c1ccc(NC(=S)NN(C)C)cc1`: the TGI is above 10 µM.

With `Nc1cc(N)c2nc(-c3ccccc3)c(Oc3ccc(F)cc3)nc2c1`, the GI50 is 10.9 µM and the TGI was above 100 µM.

Turning to `CN1CCCN(CCNc2nccc(-c3c(-c4cccc(O)c4)nc4sccn34)n2)S1(=O)=O`, the GI50 is 12.9 µM and 5.9 µM; the TGI is 75 µM and > 100 µM.

Regarding `CCOC(=O)c1c(NC(=O)c2ccc(C(C)C)cc2)sc2c(CN(C)C)c(O)ccc12`, the GI50 was 0.535 µM and the TGI came to 3.28 µM.

Consider `COc1ccc(C(=O)N2c3ccccc3Sc3ccccc32)c(F)c1`, for which the GI50 was 0.442 µM and the TGI was above 100 µM.

In turn, `CC(O)CNC1=CC(=O)C(=O)c2ccccc21` (configuration not stated) registered a TGI above 100 µM.

For the molecule `CC1(C)N=C(N)N=C(N)N1c1ccc(CCc2ccccc2)c(Cl)c1`, the GI50 was 0.0323 µM and the TGI is 14.6 µM.

For the molecule `Cc1ccc(C(=O)Nc2ccc(CN3CCN(C)CC3)c(C(F)(F)F)c2)cc1C#Cc1cnc(N)c2ccc(F)cc12`, the GI50 was 0.00431 µM and the TGI was found to be 0.9 µM.

The molecule `CC1(C)CCC(C)(C)c2cc(C(=O)Nc3ccc(C(=O)O)cc3)ccc21` came in with a TGI above 100 µM.

Consider `CC1=C(C(=O)NC2CCCCC2)CC(C(=O)NC2CCCCC2)=C(C)N1`, for which the TGI was above 100 µM.
